{
  "source": "patent US7718639B2",
  "about": "“7-hydroxyepiandrosterone having neuroprotective activity” (Hunter-Fleming Limited, priority 2000, dated 2010)",
  "key": {"[1]": {"test_system": "CA1 cell layer of organotypic hippocampal slice cultures", "assay": "Hypoxic neuronal damage in organotypic hippocampal slice cultures (PI fluorescence in CA1)", "assay_type": "cell-based, Wistar rat", "conditions": "for reduction of hypoxic CA1 damage (in words): present pre-", "experimental": "Organotypic hippocampal slice cultures were prepared using the basic method of Pringle et al (1996, 1997) modified as follows:\nWistar rat pups (8-11 days old) were decapitated and the hippocampus rapidly dissected into ice-cold Gey's balanced salt solution supplemented with 4.5 mg/ml glucose. Slices were separated and plated onto Millicell CM culture inserts (4 per well) and maintained at 37° C./5% CO2 for 14 days. Maintenance medium consisted of 25% heat-inactivated horse serum, 25% Hank's balanced salt solution (HBSS) and 50% minimum essential medium with added Earle's salts (MEM) supplemented with 1 mM glutamine and 4.5 mg/ml glucose. Medium was changed every 3-4 days.\nExperimental hypoxia was performed as described previously (Pringle et al., 1996; 1997). Briefly, cultures were transferred to serum free medium (SFM—75% MEM, 25% HBSS supplemented with 1 mM glutamine and 4.5 mg/ml glucose) containing 5 μg/ml of the fluorescent exclusion dye propidium iodide (PI). Cultures were allowed to equilibrate in SFM for 60 minutes prior to imaging. PI fluorescence was detected using a Leica inverted microscope fitted with a rhodamine filter set. Any cultures in which PI fluorescence was detected at this stage were excluded from further study. Hypoxia was induced by transferring cultures to SFM (+PI) which had been saturated with 95%N2/5%CO2. Culture plates (without lids) were then sealed into an airtight chamber in which the atmosphere was saturated with 95%N2/5%CO2 by continuously blowing through gas at 10 L/min for ten minutes before being sealed and placed in the incubator for 170 mins (total time of hypoxia was therefore 180 mins). At the end of the hypoxic period cultures were returned to normoxic SFM containing PI and placed back in the incubator for 24 hours.\nNeuronal damage was assessed as described previously (Pringle et al., 1996; 1997) using either NIH Image 1.60 running on an Apple IIsi computer or OpenLab 2.1 (Improvision) running on a Macintosh G4/400. Images were captured using a monochrome camera and saved onto optical disk for offline analysis. Light transmission images were captured prior to the addition of drugs, and PI fluorescence images recorded at the end of the 24-hour post-hypoxia recovery period. The area of the CA1 cell layer was determined from the transmission image. The area of PI fluorescence in CA1 was measured using the density slice function within NIH image or Openlab, and neuronal damage expressed as the percentage of the CA1 in which PI fluorescence was detected above background.\nSteroid compounds were prepared by making an initial 1 mg/ml solution in ethanol and further diluting down in SFM. Compounds were added to the cultures for 45 minutes prior to hypoxia, during the hypoxic episode and during the post-hypoxic recovery period. Control experiments consisted of cultures treated with vehicle alone."}, "[2]": {"test_system": "hippocampal CA1 pyramidal cells", "assay": "Global cerebral ischemia in rats (4 vessel occlusion), surviving CA1 neurons by Nissl staining", "assay_type": "in vivo, male Wistar rats", "experimental": "Cerebral ischemia was induced by four-vessel-occlusion (4VO) in male Wistar rats (250-280 g). Both vertebral arteries were occluded by electrocauterization in pentobarbital anesthesia (60 mg/kg i.p.). The animals were allowed to recover for 24 hours with free access to water but not food. The next day the carotid arteries were exposed under 2% halothane in 30% oxygen/70% nitrous oxide anesthesia and were occluded for 10 minutes using microvascular claps. Subsequently, both clamps were removed and both arteries were inspected for immediate reperfusion. During the operation and the following 3 hours normothermia of the animals (37.5Γ0.5° C.) was maintained by using a thermostatically controlled heating blanket connected to a rectal thermometer. For control, in sham-operated animals both vertebral arteries were cauterized in pentobarbital anesthesia and both common carotid arteries were exposed but not clamped under 2% halothane in 30% oxygen/70% nitrous oxide anesthesia the following day. The wound was treated with lidocaine gel and then sutured. The animals were kept under a heating lamp at 30° C. environmental temperature until they regained consciousness.\nSeven groups of animals were investigated: • 1. (n=8) steroid compound, 7β-OH EPIA (0.1 mg/kg, i.v. via tail vein, three injections: 15 minutes prior to the induction of ischemia, during ischemia and 5 minutes after reperfusion); • 2. (n=8) steroid compound, 7β-OH EPIA (0.3 mg/kg, i. v. three injections as described in 1.); • 3. (n=8) steroid compound, 7β-OH EPIA (1 mg/kg, i. v., three injections as described in 1.); • 4. (n=8) NBQX (disodium salt, because more water soluble) as reference substance and positive control (TOCRIS, Germany, 30 mg/kg, i. p., three injections as described in 1.); • 5. (n=8) received vehicle (0.9% NaCl, containing 100 μl Ethanol) three injections as described in 1.); • 6. (n=8) ischemia alone; • 7. (n=8) sham operated controls.\nThe substances were dissolved in 100 μl Ethanol and finally diluted with 0.9% NaCl.\nAfter a survival time of 7 days after ischemia, all animals were perfusion fixed transcardially with 4% paraformaldehyde. The brains were then removed carefully and postfixed in the same fixative for 2 hours. After cryoprotection in 30% sucrose, the brains were rapidly frozen in isopentane and stored at −80° C. Twenty-micrometer cryostat sections comprising the hippocampal formation were Nissl stained with toluidine blue or NeuroTrace fluorescence.\nThe severity of neuronal damage in the hippocampal CA1 region after ischemia was evaluated by the number of surviving neurons using Nissl staining. The mean number of morphologically intact neurons per 400 μm length was calculated in CA1 region for each group. […] The data were statistically analyzed by paired Student's t-test. […]"}, "[3]": {"conditions": "Experiment 1, 100 nM, compound present pre-, during and post-hypoxia, control hypoxia 25.5 ± 6.4"}, "[4]": {"conditions": "Experiment 1, 100 nM, during and post-hypoxia"}, "[5]": {"conditions": "Experiment 2, 1 nM, control hypoxia 31.9 ± 4.7"}, "[6]": {"conditions": "Experiment 2, 10 nM, control hypoxia 31.9 ± 4.7"}, "[7]": {"conditions": "Experiment 2, 100 nM, control hypoxia 31.9 ± 4.7"}},
  "data": [
    {"smiles": "CC12CCC3C(C1CCC2=O)[C@H](O)C[C@H]1C[C@@H](O)CCC31C", "note": "(stereo partly drawn) [7αOH-EPIA, 7α-Hydroxy-EPIA]", "values": [
      {"measurement": "% Damage in CA1", "setting": "[1]; [3]", "value": "4.0 ± 2.9", "unit": "%"},
      {"measurement": "reduction of hypoxic CA1 damage (in words)", "setting": "[1]; [4]", "value": "significantly reduced"},
      {"measurement": "neuroprotective effect against hypoxic damage (in words)", "setting": "[1]; Experiment 2, 1 nM", "value": "no effect"},
      {"measurement": "% Damage in CA1", "setting": "[1]; [5]", "value": "28.8 ± 5.8", "unit": "%"},
      {"measurement": "neuroprotective effect against hypoxic damage (in words)", "setting": "[1]; Experiment 2, 10 nM", "value": "not-statistically significant reduction"},
      {"measurement": "% Damage in CA1", "setting": "[1]; [6]", "value": "21.9 ± 8.1", "unit": "%"},
      {"measurement": "neuroprotective effect against hypoxic damage (in words)", "setting": "[1]; Experiment 2, 100 nM", "value": "significantly protective"},
      {"measurement": "% Damage in CA1", "setting": "[1]; [7]", "value": "11.8 ± 2.8", "unit": "%"}
    ]},
    {"smiles": "CC12CCC3C(C1CCC2=O)[C@@H](O)C[C@H]1C[C@@H](O)CCC31C", "note": "(stereo partly drawn) [7βOH-EPIA, 7β-hydroxyepiandrosterone]", "values": [
      {"measurement": "% Damage in CA1", "setting": "[1]; [3]", "value": "9.0 ± 4.7", "unit": "%"},
      {"measurement": "reduction of hypoxic CA1 damage (in words)", "setting": "[1]; [4]", "value": "significantly reduced"},
      {"measurement": "neuroprotective effect against hypoxic damage (in words)", "setting": "[1]; Experiment 2, 1 nM", "value": "activity was lost"},
      {"measurement": "% Damage in CA1", "setting": "[1]; [5]", "value": "20.6 ± 7.2", "unit": "%"},
      {"measurement": "neuroprotective effect against hypoxic damage (in words)", "setting": "[1]; Experiment 2, 10 nM", "value": "significantly neuroprotective"},
      {"measurement": "% Damage in CA1", "setting": "[1]; [6]", "value": "11.9 ± 4.7", "unit": "%"},
      {"measurement": "neuroprotective effect against hypoxic damage (in words)", "setting": "[1]; Experiment 2, 100 nM", "value": "significantly neuroprotective"},
      {"measurement": "% Damage in CA1", "setting": "[1]; [7]", "value": "14.3 ± 5.0", "unit": "%"},
      {"measurement": "neuroprotective effect on CA1 pyramidal cells compared to the sham operated group", "setting": "[2]; 0.1 mg/kg i.v., three injections, 10 min global ischemia, 7 days survival, p=0.01", "value": 74.8, "unit": "%"},
      {"measurement": "neuroprotective effect on CA1 pyramidal cells compared to the sham operated group", "setting": "[2]; 0.3 mg/kg i.v., three injections, 10 min global ischemia, 7 days survival, p=0.0008", "value": 83.9, "unit": "%"},
      {"measurement": "neuroprotective effect on CA1 pyramidal cells (in words)", "setting": "[2]; 1.0 mg/kg i.v., three injections, 10 min global ischemia, 7 days survival", "value": "only a tendency to neuroprotection, but the effect was not significant"},
      {"measurement": "behavioral abnormalities of the animals", "setting": "[2]; injected i.v. prior, during and after ischemia, all experiments", "value": "never observed any behavioral abnormalities"}
    ]}
  ]
}
